Measurements reported in the supplement of paper PMC10307832.

Experiments:
Assay in all cases: relative viability (nuclei count vs DMSO), 5 days (fraction); higher = more cells survive
Bortezomib + Phenformin = compound: CC(C)C[C@H](NC(=O)[C@H](Cc1ccccc1)NC(=O)c1cnccn1)B(O)O [Bortezomib] + N=C(N)NC(=N)NCCc1ccccc1 [Phenformin] (partner 250 µM)
In short: (§1)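 Relative viability was taken as the ratio of nuclei in treated wells to nuclei in vehicle wells. Lung cancer cell lines in 1536-well plates received compounds by pin tool one day after seeding, either one drug alone or a fixed anchor-drug dose plus five library-drug doses (not always all listed) in √10 steps. Nuclei were counted on 4× images after 5 days of treatment, and values are medians of duplicate plates.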

Bortezomib + Olaparib = compound: CC(C)C[C@H](NC(=O)[C@H](Cc1ccccc1)NC(=O)c1cnccn1)B(O)O [Bortezomib] + O=C(c1cc(Cc2n[nH]c(=O)c3ccccc23)ccc1F)N1CCN(C(=O)C2CC2)CC1 [Olaparib] (partner 8 µM)
In short: as §1

[1] = compound: CC1=CC(=NN1)NC2=CC(=NC(=N2)/C=C/C3=CC=CC=C3)N4CCN(CC4)C + COc1cc2c(Oc3ccc(NC(=O)C4(C(=O)Nc5ccc(F)cc5)CC4)cc3F)ccnc2cc1OCCCN1CCOCC1 [Foretinib] (partner 0.25 µM)
In short: as §1

[2] = compound: CC1=CC(=NN1)NC2=CC(=NC(=N2)/C=C/C3=CC=CC=C3)N4CCN(CC4)C + Nc1ncn([C@H]2C[C@H](O)[C@@H](CO)O2)c(=O)n1 [Decitabine] (partner 2 µM)
In short: as §1

| Cell Line | relative viability (Bortezomib + Phenformin; first compound 0.0002 µM) | relative viability (Bortezomib + Phenformin; first compound 0.000632 µM) | relative viability (Bortezomib + Phenformin; first compound 0.002 µM) | relative viability (Bortezomib + Phenformin; first compound 0.006325 µM) | relative viability (Bortezomib + Phenformin; first compound 0.02 µM) | relative viability (Bortezomib + Olaparib; first compound 0.0002 µM) | relative viability (Bortezomib + Olaparib; first compound 0.000632 µM) | relative viability (Bortezomib + Olaparib; first compound 0.002 µM) | relative viability (Bortezomib + Olaparib; first compound 0.006325 µM) | relative viability (Bortezomib + Olaparib; first compound 0.02 µM) | relative viability ([1]; first compound 0.08 µM) | relative viability ([1]; first compound 0.253 µM) | relative viability ([1]; first compound 0.8 µM) | relative viability ([1]; first compound 2.53 µM) | relative viability ([1]; first compound 8 µM) | relative viability ([2]; first compound 0.08 µM) | relative viability ([2]; first compound 0.253 µM) | relative viability ([2]; first compound 0.8 µM) | relative viability ([2]; first compound 2.53 µM) | relative viability ([2]; first compound 8 µM) |
| --- | --- | --- | --- | --- | --- | --- | --- | --- | --- | --- | --- | --- | --- | --- | --- | --- | --- | --- | --- | --- |
| NCI-H1651 | 0.354 | 0.312 | 0.229 | 0.101 | 0.106 | 0.181 | 0.194 | 0.144 | 0.0868 | 0.0799 | 0.732 | 0.899 | 0.913 | 0.447 | 0.162 | 0.356 | 0.597 | 0.613 | 0.322 | 0.132 |
| NCI-H1666 | 0.533 | 0.544 | 0.559 | 0.365 | 0.307 | 0.684 | 0.783 | 0.697 | 0.511 | 0.45 | 1.02 | 0.948 | 1 | 0.739 | 0.33 | 0.574 | 0.682 | 0.749 | 0.719 | 0.584 |
| NCI-H1734 | 0.454 | 0.37 | 0.356 | 0.155 | 0.105 | 0.555 | 0.661 | 0.443 | 0.115 | 0.0968 | 0.816 | 0.828 | 0.815 | 0.447 | 0.161 | 0.515 | 0.531 | 0.544 | 0.362 | 0.16 |
| NCI-H1755 | 0.683 | 0.596 | 0.592 | 0.23 | 0.229 | 0.845 | 0.896 | 0.828 | 0.241 | 0.207 | 0.9 | 0.962 | 0.866 | 0.622 | 0.297 | 0.707 | 0.65 | 0.733 | 0.663 | 0.428 |
| NCI-H1793 | 0.366 | 0.242 | 0.368 | 0.344 | 0.169 | 0.848 | – | 0.904 | 0.276 | 0.126 | 0.349 | 0.663 | 0.329 | 0.121 | 0.112 | 0.488 | 0.554 | 0.43 | 0.127 | 0.123 |
| NCI-H1915 | 0.361 | 0.356 | 0.371 | 0.147 | 0.0571 | 0.251 | 0.257 | 0.244 | 0.056 | 0.0357 | 1.01 | 1.13 | 1.06 | 0.817 | 0.386 | 0.241 | 0.273 | 0.261 | 0.238 | 0.168 |
| NCI-H1944 | 0.198 | 0.185 | 0.213 | 0.201 | 0.155 | 0.419 | 0.392 | 0.414 | 0.331 | 0.142 | 0.916 | 0.949 | 0.853 | 0.535 | 0.216 | 0.4 | 0.485 | 0.478 | 0.351 | 0.252 |
| NCI-H1975 | 0.405 | 0.35 | 0.115 | 0.0978 | 0.106 | 0.779 | 0.766 | 0.16 | 0.103 | 0.126 | 0.928 | 1.02 | 0.795 | 0.326 | 0.128 | 0.377 | 0.406 | 0.344 | 0.314 | 0.154 |
| NCI-H1993 | 0.489 | 0.458 | 0.512 | 0.419 | 0.464 | 1.01 | 1.01 | 0.679 | 0.363 | 0.398 | 0.754 | 0.911 | 0.763 | 0.594 | 0.447 | 0.526 | 0.598 | 0.616 | 0.47 | 0.445 |
| NCI-H2009 | 0.512 | 0.479 | 0.492 | 0.113 | 0.0828 | 0.654 | 0.661 | 0.693 | 0.222 | 0.049 | 1.22 | 1.22 | 1.23 | 0.493 | 0.217 | 0.357 | 0.377 | 0.444 | 0.282 | 0.151 |
| NCI-H2023 | 0.494 | 0.411 | 0.389 | 0.0877 | 0.0739 | 0.427 | 0.473 | 0.485 | 0.0778 | 0.0633 | 0.719 | 0.974 | 0.832 | 0.362 | 0.0501 | 0.22 | 0.221 | 0.231 | 0.0739 | 0.0699 |
| NCI-H2085 | 0.757 | 0.826 | 0.693 | 0.318 | 0.16 | 0.8 | 0.802 | 0.688 | 0.232 | 0.211 | 0.972 | 1.04 | 0.842 | 0.552 | 0.227 | 0.541 | 0.507 | 0.56 | 0.336 | 0.298 |
| NCI-H2087 | 0.451 | 0.441 | 0.312 | 0.0487 | 0.0431 | 0.634 | 0.672 | 0.286 | 0.0419 | 0.0226 | 1.05 | 1.14 | 1.02 | 0.336 | 0.111 | 0.294 | 0.193 | 0.265 | 0.0921 | 0.0912 |
| NCI-H2126 | 0.528 | 0.534 | 0.538 | 0.34 | 0.256 | 0.851 | 0.903 | 0.9 | 0.794 | 0.184 | 1.06 | 1.09 | 1.19 | 1.03 | 0.587 | 0.602 | 0.595 | 0.55 | 0.561 | 0.27 |
| NCI-H2170 | 0.43 | 0.419 | 0.462 | 0.326 | 0.208 | 0.583 | 0.576 | 0.584 | 0.11 | 0.102 | 1.02 | 0.981 | 0.95 | 0.774 | 0.183 | 0.452 | 0.51 | 0.467 | 0.373 | 0.251 |
| NCI-H2342 | 0.653 | 0.508 | 0.574 | 0.714 | 0.566 | 0.514 | 0.503 | 0.382 | 0.473 | 0.273 | 0.918 | 1.06 | 1.14 | 1.01 | 0.578 | 0.753 | 0.774 | 0.662 | 0.703 | 0.641 |
